{"source": "patent US7687473B2", "about": "“5-amino-4-imidazolecarboxamide riboside and its nucleobase as potentiators of antifolate transport and metabolism” (Health Research, Inc., priority 2005, dated 2010)", "key": {"CCRF-CEM": {"system": "CCRF-CEM", "details": "10 μg/ml, within 5 min; cited from earlier work"}, "CCRF-CEM cells [1]": {"system": "CCRF-CEM cells", "test": "[3H]MTX uptake (initial velocity and 30 min accumulation) in CCRF-CEM cells", "type": "cell-based, human", "method": "(§1) Quantitation of folate and antifolate uptake. The method is essentially as follows. Briefly, logarithmically growing (3-5×10^5/ml) CCRF-CEM cells were harvested at room temperature by centrifugation at 1000×g for 5 min. After washing with the appropriate medium, cells were suspended at ≈2×10^7 cells/ml for use in transport studies. […] Anion-free MHS contains 250 mM sucrose and 20 mM HEPES, titrated to pH 7.4 with MgO. […] Uptake was measured as a function of time for 30 min (for rate and extent measurements) or over 5 min (studies requiring initial velocities). […] Uptake was terminated by diluting 100 μL samples into 1 ml of iced 0.9% NaCl. […] The supernatant was aspirated. The cell pellet was washed once with 1 ml iced 0.9% NaCl and centrifuged as above. The washed pellet was solubilized in 1 ml of 0.3% Triton X-100 by incubation for 60 min at 37° C. The solubilized pellet was transferred to a scintillation vial, 10 ml of Liquiscint (National Diagnostics, Atlanta, Ga.) was added and radioactivity was quantitated in a Beckman Model LS6500 liquid scintillation counter. Separate samples at the longest incubation time used in a particular experiment were harvested for HPLC analysis of intracellular contents as above, except that after the second wash the pellets were extracted with 1 ml boiling 0.1 M Na-phosphate, pH 5.5. The extract was clarified by centrifugation and the supernatant was filtered through an MPS-1 filter unit (Amicon) prior to HPLC analysis."}, "CCRF-CEM cells [2]": {"system": "CCRF-CEM cells", "test": "Effect of protein kinase inhibitors on [3H]MTX uptake", "type": "cell-based, human", "source_text": "To determine whether protein phosphorylation is involved in the mechanism of Z potentiation, we began studies with a series of protein kinase (PK) inhibitors (PKI)."}, "CCRF-CEM cells [3]": {"system": "CCRF-CEM cells", "test": "[3H]leucovorin uptake in CCRF-CEM cells", "type": "cell-based, human", "details": "1 μM [3H]LV; 10 min preincubation, 1 μM TMTX, 0.5 mM Z", "method": "as §1"}, "CCRF-CEM cells [4]": {"system": "CCRF-CEM cells", "test": "Subcellular localization of [3H]MTX", "type": "cell-based, human", "details": "30 min uptake of 2 μM [3H]MTX; 2 μM TMTX, 500 μM Z", "method": "Subcellular fractionation. […] Cells were diluted 9-fold in iced 0.9% NaCl, centrifuged at 1000×g for 5 min and washed once with 40 ml iced saline. All subsequent steps were performed at 4°. Cells were homogenized as previously described, except that hypotonic buffer at 20-fold the packed cell volume was used, and the homogenate was centrifuged for 6 min at 1000×g to yield a nuclear pellet (also containing unlysed cells and large debris) and a post-nuclear supernatant (PNS). Based on controls using nonradiolabeled cells, >91% of the cells would be lysed during homogenization. The PNS was centrifuged at 17,000×g to yield a combined mitochondria-lysosome pellet. The resulting supernatant was centrifuged at 100,000×g for 60 min to yield the 100,000×g supernatant (cytosol). The 100,000×g pellet (microsomes) and the combined mitochondria-lysosome pellet were each washed in isotonic buffer and centrifuged at their respective g-forces. All pellets were solubilized in 0.3% Triton X-100 by incubating at 37° for 1 hr; 1 ml was transferred to a scintillation vial for quantitation. Triton X-100 was added to the cytosol to a final concentration of 0.3% and a 1 ml aliquot was quantitated. Radioactivity in each fraction was corrected for a blank containing 0.3% Triton X-100."}, "[5]": {"molecular_target": "T1, reduced folate carrier (RFC) (Homo sapiens, UniProt P41440)", "T1 construct": "endogenous in cells; host or cells: CCRF-CEM (parental)", "T1 sequence (P41440 1-591)": "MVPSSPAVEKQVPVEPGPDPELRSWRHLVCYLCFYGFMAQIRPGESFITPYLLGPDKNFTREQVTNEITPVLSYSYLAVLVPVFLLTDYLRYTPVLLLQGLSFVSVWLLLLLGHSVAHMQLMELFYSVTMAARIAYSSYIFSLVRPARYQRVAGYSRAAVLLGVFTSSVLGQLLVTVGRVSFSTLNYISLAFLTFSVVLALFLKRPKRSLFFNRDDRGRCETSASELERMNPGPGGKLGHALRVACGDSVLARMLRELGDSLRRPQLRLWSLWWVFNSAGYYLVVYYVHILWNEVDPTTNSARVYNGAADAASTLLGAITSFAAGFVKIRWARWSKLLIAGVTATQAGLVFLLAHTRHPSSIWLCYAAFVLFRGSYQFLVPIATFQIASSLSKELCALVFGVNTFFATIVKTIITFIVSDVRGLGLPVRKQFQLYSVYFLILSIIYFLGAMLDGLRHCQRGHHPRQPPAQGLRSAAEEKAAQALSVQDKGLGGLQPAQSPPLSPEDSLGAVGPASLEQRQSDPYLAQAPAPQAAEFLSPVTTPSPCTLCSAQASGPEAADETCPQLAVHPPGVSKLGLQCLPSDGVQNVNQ", "test": "Kinetic constants for influx of [3H]MTX by CCRF-CEM cells", "type": "cell-based", "details": "influx of [3H]MTX; pre-incubation with solvent (MTX alone), 1 μM TMTX, or 1 μM TMTX + 0.5 mM Z", "method": "as §1\nInhibition of the vi of uptake was measured after pre-incubation of CCRF-CEM cells either with TMTX alone (measuring inhibition at the RFC) or with TMTX+Z (measuring inhibition during Z potentiation). […] All studies were carried out in standard transport medium. Inhibitory potency was measured in two series of experiments and AMT was included in each series as an internal control. Values are average±range of two determinations. […] Values are average±range for duplicate determinations."}}}
{"smiles": "C[C@@H]1C[C@@H]([C@H](O)CC2CC(=O)NC(=O)C2)C(=O)[C@@H](C)C1", "note": "[CHX, cycloheximide]", "values": [{"measurement": "Inhibition of protein synthesis", "setting": "CCRF-CEM", "result": "completely inhibited"}, {"measurement": "Potentiation of [3H]MTX influx by 0.5 mM Z after protein synthesis inhibition", "setting": "CCRF-CEM cells [1]; 10 μg/ml CHX preincubated 10 min, Z added for last 5 min", "result": "potentiation still occurred"}]}
{"smiles": "O=c1c(O)c(-c2ccc(O)c(O)c2)oc2cc(O)cc(O)c12", "note": "[Quercetin, quercetin]", "values": [{"measurement": "Decrease of 30 min accumulation +TMTX+Z", "setting": "CCRF-CEM cells [2]; 50 μM", "result": 21, "unit": "%"}, {"measurement": "Decrease of initial influx rate", "setting": "CCRF-CEM cells [2]; 50 μM", "result": 43, "unit": "%"}, {"measurement": "Decrease of 30 min accumulation +TMTX+Z", "setting": "CCRF-CEM cells [2]; 100 μM", "result": 38, "unit": "%"}, {"measurement": "Decrease of initial influx rate", "setting": "CCRF-CEM cells [2]; 100 μM", "result": 55, "unit": "%"}, {"measurement": "Increase of uptake +TMTX at 30 min", "setting": "CCRF-CEM cells [2]; 50 or 100 μM", "result": "10-12%"}]}
{"smiles": "COc1cc(NCc2ccc3nc(N)nc(N)c3c2C)cc(OC)c1OC", "note": "[TMTX, trimetrexate]", "values": [{"measurement": "Increase in 30 min accumulation (extent) of [3H]LV", "setting": "CCRF-CEM cells [3]", "result": 1.6, "unit": "fold"}, {"measurement": "Increase in vi of [3H]LV uptake", "setting": "CCRF-CEM cells [3]", "result": 1.4, "unit": "fold"}, {"measurement": "Relative radioactivity, Cytosol", "setting": "CCRF-CEM cells [4]", "result": 88.9, "unit": "%"}, {"measurement": "Relative radioactivity, Microsomes", "setting": "CCRF-CEM cells [4]", "result": 0.2, "unit": "%"}, {"measurement": "Relative radioactivity, Mito-Lysosomes", "setting": "CCRF-CEM cells [4]", "result": 0.4, "unit": "%"}, {"measurement": "Relative radioactivity, Nuclear Pellet", "setting": "CCRF-CEM cells [4]", "result": 10.5, "unit": "%"}, {"measurement": "Total [3H]MTX recovered in all four fractions", "setting": "CCRF-CEM cells [4]", "result": 338.4, "unit": "pmol"}, {"measurement": "[3H]MTX/fraction, Cytosol", "setting": "CCRF-CEM cells [4]", "result": 300.3, "unit": "pmol"}, {"measurement": "[3H]MTX/fraction, Microsomes", "setting": "CCRF-CEM cells [4]", "result": 0.7, "unit": "pmol"}, {"measurement": "[3H]MTX/fraction, Mito-Lysosomes", "setting": "CCRF-CEM cells [4]", "result": 1.3, "unit": "pmol"}, {"measurement": "[3H]MTX/fraction, Nuclear Pellet", "setting": "CCRF-CEM cells [4]", "result": 35.5, "unit": "pmol"}, {"measurement": "Extent of [3H]MTX accumulation at 30 min relative to absence of TMTX", "setting": "CCRF-CEM cells [1]; 10 min preincubation with 2 μM TMTX, no Z", "result": "90-100%"}, {"measurement": "Kt", "setting": "[5]", "result": "5.3 ± 0.6", "unit": "µM"}, {"measurement": "Vmax", "setting": "[5]", "result": "7.2 ± 0.6", "unit": "pmol/min/10^7 cells"}, {"measurement": "Vmax/Kt", "setting": "[5]", "result": 1.36}]}
